# ChEMBL document CHEMBL1287781, “Novel lipophilic 7H-pyrido[1,2,3-de]-1,4-benzoxazine-6-carboxylic acid derivatives as potential antitumor agents: improved synthesis and in vitro evaluation” (Bioorg Med Chem, 2010)
# The source made the active and inactive calls. The calls are words filed in the database; no cut-off is given here.
# What was measured:
# MCF7 [1] = assay: Anticancer activity against human MCF7 after 5 days by MTT assay; assay type: functional, cell-based; conditions: MCF7, 120 h
# [2] = Toxicity in ip dosed B6D2F1 mouse after 28 days; assay type: organism-based; conditions: in vivo
# [3] = Anticancer activity against human U373MG after 5 days by MTT assay; assay type: functional, cell-based, U-373MG ATCC; conditions: U373 MG, 120 h
# [4] = Chemical stability of the compound in phosphate buffer at pH 7.4 after 7 days; assay type: physicochemical; conditions: read-out: Stability
# LoVo [5] = assay: Anticancer activity against human LoVo cells after 5 days by MTT assay; assay type: functional, cell-based; conditions: 120 h
# A549 [6] = assay: Anticancer activity against human A549 after 5 days by MTT assay; assay type: functional, cell-based; conditions: A549, 120 h
# PC-3 [7] = assay: Anticancer activity against human PC3 after 5 days by MTT assay; assay type: functional, cell-based; conditions: PC-3, 120 h
# U-373MG ATCC [8] = assay: Antimigratory activity against human U373MG at 1 uM after 6 days by phase-contrast microscopy; assay type: functional, cell-based
# U-373MG ATCC [9] = assay: Antimigratory activity against human U373MG at 0.1 uM after 6 days by phase-contrast microscopy; assay type: functional, cell-based
# A549 [10] = assay: Anticancer activity against human A549 after 3 to 5 days by MTT assay; assay type: functional, cell-based
# U-373MG ATCC [11] = assay: Anticancer activity against human U373MG after 3 to 5 days by MTT assay; assay type: functional, cell-based
# MCF7 [12] = assay: Anticancer activity against human MCF7 after 3 to 5 days by MTT assay; assay type: functional, cell-based
# LoVo [13] = assay: Anticancer activity against human LoVo cells after 3 to 5 days by MTT assay; assay type: functional, cell-based
# PC-3 [14] = assay: Anticancer activity against human PC3 after 3 to 5 days by MTT assay; assay type: functional, cell-based
# MCF7 [15] = assay: Anticancer activity against human MCF7 by sulforhodamine B assay; assay type: functional, cell-based
# A549 [16] = assay: Anticancer activity against human A549 by sulforhodamine B assay; assay type: functional, cell-based
IC50 (MCF7 [1]),remaining at 168 h [4],IC50 (LoVo [5]),IC50 (A549 [6]),IC50 (PC-3 [7]),IC50 (MCF7 [15]),IC50 (A549 [16]),SMILES,MTD at 672 h [2],IC50 [3],Activity (U-373MG ATCC [8]),Activity (U-373MG ATCC [9]),Activity (A549 [10]),Activity (U-373MG ATCC [11]),Activity (MCF7 [12]),Activity (LoVo [13]),Activity (PC-3 [14])
10 µM,,3 µM,5 µM,5 µM,,,CCCCCCCCCCCCNC(=O)c1cn2c3c(c(N4CCN(C)CC4)c(F)cc3c1=O)OC[C@@H]2C,,5 µM,,,,,,,
5 µM,,1 µM,3 µM,4 µM,,,CCCCCCCNC(=O)c1cn2c3c(c(N4CCN(C)CC4)c(F)cc3c1=O)OC[C@@H]2C,,3 µM,,,,,,,
5 µM,,3 µM,3 µM,3 µM,,,CCCCCCCCCCNC(=O)c1cn2c3c(c(N4CCN(C)CC4)c(F)cc3c1=O)OC[C@@H]2C,,3 µM,,,,,,,
16 µM,100%,5 µM,6 µM,12 µM,,,CCCCCCNC(=O)c1cn2c3c(c(N4CCN(C)CC4)c(F)cc3c1=O)OC[C@@H]2C,,4 µM,,,,,,,
12 µM,,4 µM,593 µM,100 µM,,,CCCCCCCCCCCCCCCCCC(=O)OCOC(=O)c1cn2c3c(c(N4CCN(C)CC4)c(F)cc3c1=O)OC[C@@H]2C,,0.9 µM,inactive,inactive,,,,,
2.9 µM,,,,,,,CO/N=C(/CN1CCN(c2cc3c(cc2F)c(=O)c(C(=O)O)cn3C2CC2)CC1)c1ccc(Cl)s1,,,,,,,,,
2.1 µM,100%,0.8 µM,2.2 µM,1.5 µM,,,CCCCCCCCNC(=O)c1cn2c3c(c(N4CCN(C)CC4)c(F)cc3c1=O)OC[C@@H]2C,,2.3 µM,,,Dose-dependent effect,Dose-dependent effect,Dose-dependent effect,Dose-dependent effect,Dose-dependent effect
5 µM,> 98%,3 µM,5 µM,3 µM,,,CCCCCCCCCCCCCCNC(=O)c1cn2c3c(c(N4CCN(C)CC4)c(F)cc3c1=O)OC[C@@H]2C,,3 µM,,,,,,,
0.3 µM,> 91%,0.3 µM,65 µM,86 µM,,,CCCCCCCCCCCC(=O)OCOC(=O)c1cn2c3c(c(N4CCN(C)CC4)c(F)cc3c1=O)OC[C@@H]2C,,0.2 µM,inactive,inactive,,,,,
8 µM,> 93%,6 µM,46 µM,56 µM,,,CCCCCCCCCCCCCCCC(=O)OCOC(=O)c1cn2c3c(c(N4CCN(C)CC4)c(F)cc3c1=O)OC[C@@H]2C,,4 µM,,,,,,,
15 µM,,6 µM,8 µM,5 µM,,,CCCCCCCCCCCCCCCNC(=O)c1cn2c3c(c(N4CCN(C)CC4)c(F)cc3c1=O)OC[C@@H]2C,,7 µM,,,,,,,
622 µM,,67 µM,70 µM,238 µM,,,C[C@H]1COc2c(N3CCN(C)CC3)c(F)cc3c(=O)c(C(=O)O)cn1c23 [LEVOFLOXACIN],,188 µM,,,Dose-dependent effect,Dose-dependent effect,Dose-dependent effect,Dose-dependent effect,Dose-dependent effect
55 µM,> 97%,24 µM,46 µM,30 µM,,,CCCCNC(=O)c1cn2c3c(c(N4CCN(C)CC4)c(F)cc3c1=O)OC[C@@H]2C,,113 µM,,,,,,,
6 µM,,21 µM,617 µM,71 µM,,,CCCCCCCCCCCCCC(=O)OCOC(=O)c1cn2c3c(c(N4CCN(C)CC4)c(F)cc3c1=O)OC[C@@H]2C,,8 µM,,,,,,,
35 µM,> 92%,5 µM,3 µM,31 µM,,,CCCC(=O)OCOC(=O)c1cn2c3c(c(N4CCN(C)CC4)c(F)cc3c1=O)OC[C@@H]2C,,40 µM,,,,,,,
,,,,,> 10 µM,> 10 µM,C[C@H]1COc2c(N3CCN(C)CC3)c(F)cc3c(=O)c(-c4nc5ccc([N+](=O)[O-])cc5s4)cn1c23,,,,,,,,,

SMILES,IC50 (MCF7 [1]),remaining at 168 h [4],IC50 (LoVo [5]),IC50 (A549 [6]),IC50 (PC-3 [7]),IC50 (MCF7 [15]),IC50 (A549 [16]),MTD at 672 h [2],IC50 [3],Activity (U-373MG ATCC [8]),Activity (U-373MG ATCC [9]),Activity (A549 [10]),Activity (U-373MG ATCC [11]),Activity (MCF7 [12]),Activity (LoVo [13]),Activity (PC-3 [14])
CCCCCCCC(=O)OCOC(=O)c1cn2c3c(c(N4CCN(C)CC4)c(F)cc3c1=O)OC[C@@H]2C,238 µM,> 90%,209 µM,289 µM,230 µM,,,> 80 mg/kg,243 µM,,,,,,,
CCCCCCCCCC(=O)OCOC(=O)c1cn2c3c(c(N4CCN(C)CC4)c(F)cc3c1=O)OC[C@@H]2C,> 1000 µM,,> 1000 µM,> 1000 µM,> 1000 µM,,,> 80 mg/kg,> 1000 µM,,,,,,,
CCCCCC(=O)OCOC(=O)c1cn2c3c(c(N4CCN(C)CC4)c(F)cc3c1=O)OC[C@@H]2C,183 µM,,162 µM,235 µM,207 µM,,,> 80 mg/kg,199 µM,,,,,,,
